Reference: the NIST ThermoML archive (doi:10.1007/s10765-013-1526-8)

How the values were obtained:
[1] = xn = mol fraction of the nth substance listed; details: 101 kPa, Liquid; for speed of sound: Sing-around technique in a fixed-path interferometer
[2] = refractive index (Na D-line) (dimensionless); xn = mol fraction of the nth substance listed; details: 101 kPa, Liquid
[3] = 101 kPa, Liquid; for speed of sound: Sing-around technique in a fixed-path interferometer
[4] = refractive index (Na D-line) (dimensionless); details: 101.33 kPa, Liquid

CCCCC(CC)CO (centres undefined) [2-ethyl-1-hexanol] + Brc1ccccc1
x2 = 0
Details	mass density, [1] [kg/m3]	refractive index, [2]	speed of sound, [1] [m/s]	viscosity, [1] [mPa·s]
298.15 K	829.07	1.4287	1319	8.418
303.15 K	825.39	1.4266	1301	7.144
308.15 K	821.68	1.4245	1283	6.09

Brc1ccccc1 [bromobenzene]
Details	mass density, [3] [kg/m3]	refractive index, [4]	speed of sound, [3] [m/s]	viscosity, [3] [mPa·s]
298.15 K	1488.12	1.557	1153	1.065
303.15 K	1481.4	1.555	1138	1.005
308.15 K	1474.58	1.553	1122	0.972

CCCCC(CC)CO (centres undefined) [2-ethyl-1-hexanol]
Details	mass density, [3] [kg/m3]	refractive index, [4]	speed of sound, [3] [m/s]	viscosity, [3] [mPa·s]
298.15 K	829.07	1.4287	1319	8.418
303.15 K	825.39	1.4266	1301	7.144
308.15 K	821.68	1.4245	1283	6.09

Clc1ccccc1 [chlorobenzene] + CCCCC(CC)CO
x1 = 1
Details	mass density, [1] [kg/m3]	refractive index, [2]	speed of sound, [1] [m/s]	viscosity, [1] [mPa·s]
298.15 K	1101.03	1.524	1268	0.767
303.15 K	1095.52	1.521	1249	0.716
308.15 K	1090.2	1.518	1231	0.66

c1ccccc1 [benzene] + CCCCC(CC)CO
x1 = 1
Details	mass density, [1] [kg/m3]	refractive index, [2]	speed of sound, [1] [m/s]	viscosity, [1] [mPa·s]
298.15 K	873.66	1.4969	1299	0.603
303.15 K	868.29	1.4949	1276	0.557
308.15 K	862.92	1.4929	1253	0.533

Clc1ccccc1 [chlorobenzene]
Details	mass density, [3] [kg/m3]	refractive index, [4]	speed of sound, [3] [m/s]	viscosity, [3] [mPa·s]
298.15 K	1101.03	1.524	1268	0.767
303.15 K	1095.52	1.521	1249	0.716
308.15 K	1090.2	1.518	1231	0.66

c1ccccc1 [benzene]
Details	mass density, [3] [kg/m3]	refractive index, [4]	speed of sound, [3] [m/s]	viscosity, [3] [mPa·s]
298.15 K	873.66	1.4969	1299	0.603
303.15 K	868.29	1.4949	1276	0.557
308.15 K	862.92	1.4929	1253	0.533
